Results from US10946017B2, “Tank-binding kinase-1 PROTACs and associated methods of use” (Arvinas Operations, Inc., priority 2015, dated 2021).

Tests used:
TBK1 [1] = biological target: T1, TBK1 (Homo sapiens (Human), UniProt Q9UHD2); test: In vitro TBK1 degradation assay, Panc02.13 cells (compounds 3-33), immunoblot; format: cell-based; details: TBK1 degradation, Panc02.13 cells, 16 h, mean of ≥ 2 determinations; for DC50: read-out: DC50 (concentration at which 50% degradation is observed)
Method: In vitro degradation assay protocol for compounds 3-33: Panc02.13 cells were purchased from ATCC and cultured in RPMI-1640 (Gibco), supplemented with 15% FBS (ATCC) and 10 Units/mL human recombinant insulin (Gibco). PROTAC treatments were carried out in 12-well plates for 16 h. TLR3 agonist Poly I:C (Invivogen; tlr1-pic) was added for the final 3 h. Cells were harvested, and lysed in RIPA buffer (50 mM Tris pH8, 150 mM NaCl, 1% Tx-100, 0.1% SDS, 0.5% Sodium Deoxycholate) supplemented with protease and phosphatase inhibitors. Lysates were clarified at 16,000 g for 10 minutes, and supernatants were separated by SDS-PAGE. Immunoblotting was performed using standard protocols. The antibodies used were TBK1 (Cell Signaling#3504), pIRF3 (abcam#ab76493), and GAPDH (Cell Signaling#5174).

TBK1 [2] = biological target: T1, TBK1; test: In vitro TBK1 degradation assay, MDA MB 231 cells (compounds 34-57), immunoblot; format: cell-based; details: 1 uM compound, 16 h, read-out: % TBK1 remaining at 1 uM Cmpd
Method: MDA MB 231 cells were purchased from ATCC and cultured in RPMI-1640 (Gibco), supplemented with 10% FBS (Gibco). PROTAC treatments were carried out in 24-well plates for 16 h. Cells were harvested, and lysed in RIPA buffer (50 mM Tris pH8, 150 mM NaCl, 1% Tx-100, 0.1% SDS, 0.5% Sodium Deoxycholate) supplemented with protease and phosphatase inhibitors. Lysates were clarified at 16,000 g for 10 minutes, and supernatants were separated by SDS-PAGE. Immunoblotting was performed using standard protocols. The antibodies used were TBK1 (Cell Signaling#3504) and GAPDH (Cell Signaling#5174).

[3] = biological target: Von Hippel-Lindau (VHL) E3 ligase (Homo sapiens (Human), UniProt P40337); test: VHL binding, FP assay; details: affinity of the VHL ligand component with side chain R2
Sequence of Von Hippel-Lindau (VHL) E3 ligase (P40337 whole entry, looked up): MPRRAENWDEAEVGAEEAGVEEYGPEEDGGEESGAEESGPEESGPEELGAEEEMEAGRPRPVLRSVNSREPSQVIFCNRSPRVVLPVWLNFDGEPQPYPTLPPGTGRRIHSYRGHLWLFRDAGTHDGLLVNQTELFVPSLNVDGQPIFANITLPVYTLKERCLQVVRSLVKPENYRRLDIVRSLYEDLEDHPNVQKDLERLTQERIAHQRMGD
Sequence of Von Hippel-Lindau (VHL) E3 ligase (Q15370 whole entry partner, looked up): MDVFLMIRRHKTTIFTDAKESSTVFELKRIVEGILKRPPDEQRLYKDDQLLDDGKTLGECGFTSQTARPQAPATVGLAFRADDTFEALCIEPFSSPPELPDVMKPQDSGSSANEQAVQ
Sequence of Von Hippel-Lindau (VHL) E3 ligase (Q15369 whole entry partner, looked up): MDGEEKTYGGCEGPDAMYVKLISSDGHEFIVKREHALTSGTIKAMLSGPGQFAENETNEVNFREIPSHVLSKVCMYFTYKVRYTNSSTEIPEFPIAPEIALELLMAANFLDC

T1 sequence (Q9UHD2 whole entry): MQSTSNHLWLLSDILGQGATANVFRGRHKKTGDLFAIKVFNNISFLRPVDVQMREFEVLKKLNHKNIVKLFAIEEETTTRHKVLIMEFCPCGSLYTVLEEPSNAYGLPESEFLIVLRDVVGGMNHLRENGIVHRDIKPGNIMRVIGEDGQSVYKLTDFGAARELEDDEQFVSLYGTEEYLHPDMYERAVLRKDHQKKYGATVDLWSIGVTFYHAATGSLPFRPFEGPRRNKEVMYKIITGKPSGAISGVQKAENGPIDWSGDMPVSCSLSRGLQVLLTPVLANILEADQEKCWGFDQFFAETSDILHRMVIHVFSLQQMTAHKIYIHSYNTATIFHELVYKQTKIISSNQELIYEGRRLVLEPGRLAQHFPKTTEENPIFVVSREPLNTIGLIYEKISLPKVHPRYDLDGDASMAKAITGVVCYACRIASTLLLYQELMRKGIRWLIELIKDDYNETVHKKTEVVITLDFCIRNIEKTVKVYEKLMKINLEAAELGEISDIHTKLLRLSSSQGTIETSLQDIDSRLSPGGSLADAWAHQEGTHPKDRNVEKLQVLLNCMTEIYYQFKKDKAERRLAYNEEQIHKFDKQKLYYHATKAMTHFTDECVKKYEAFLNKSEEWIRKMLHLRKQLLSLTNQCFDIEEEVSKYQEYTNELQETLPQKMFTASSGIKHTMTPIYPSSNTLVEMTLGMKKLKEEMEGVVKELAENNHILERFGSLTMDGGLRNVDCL

Compound | remaining activity at 1 µM (TBK1 [2]) [%] | Dmax (maximal degradation observed) (TBK1 [1]) [%] | DC50 (TBK1 [1]) [nM] | also measured
Cc1ncsc1-c1ccc(CNC(=O)[C@@H]2C[C@@H](O)CN2C(=O)[C@@H](NC(=O)COCCCOCCCCCOc2ccc(Nc3ncc(Br)c(NCCCN(C)C(=O)C4CCC4)n3)cc2)C(C)(C)C)cc1 [Compound 8] | – | 79 | 88 | –
Cc1ncsc1-c1ccc(CNC(=O)[C@@H]2C[C@@H](O)CN2C(=O)[C@@H](NC(=O)CCOCCCOCCCOCCCOCCCOc2ccc(Nc3ncc(Br)c(NCCCN(C)C(=O)C4CCC4)n3)cc2)C(C)(C)C)cc1 [Compound 15] | – | 96 | 25 | –
Cc1ncsc1-c1ccc(CNC(=O)[C@@H]2C[C@@H](O)CN2C(=O)[C@H](C(C)C)N2Cc3ccccc3C2=O)c(OCCOCCOCCOCCOCCOc2ccc(Nc3ncc(Br)c(NCCCN(C)C(=O)C4CCC4)n3)cc2)c1 [Compound 38] | ≥ 81 | – | – | –
CCC[C@H](NC(=O)COCCCOCCCCOCCCOc1ccc(Nc2ncc(Br)c(NCCCN(C)C(=O)C3CCC3)n2)cc1)C(=O)N1C[C@H](O)C[C@H]1C(=O)NCc1ccc(-c2scnc2C)cc1 [Compound 32] | – | 75 | 288 | IC50 [3]: 6200 nM
Cc1ncsc1-c1ccc(CNC(=O)[C@@H]2C[C@@H](O)CN2C(=O)[C@@H](NC(=O)CCCCCOCCCCOCCCCOc2ccc(Nc3ncc(Br)c(NCCCN(C)C(=O)C4CCC4)n3)cc2)C(C)(C)C)cc1 [Compound 12] | – | 90 | 95 | –
Cc1ncsc1-c1ccc(CNC(=O)[C@@H]2C[C@@H](O)CN2C(=O)[C@H](C(C)C)N2Cc3ccccc3C2=O)c(OCCOCCOc2ccc(Nc3ncc(Br)c(NCCCN(C)C(=O)C4CCC4)n3)cc2)c1 [Compound 34] | 41 to 80 | – | – | –
Cc1ncsc1-c1ccc(CNC(=O)[C@@H]2C[C@@H](O)CN2C(=O)[C@@H](NC(=O)COCCOCCCCOCCCCOCCOc2ccc(Nc3ncc(Br)c(NCCCN(C)C(=O)C4CCC4)n3)cc2)C(C)(C)C)cc1 [Compound 14] | – | 96 | 6 | –
Cc1ncsc1-c1ccc(CNC(=O)[C@@H]2C[C@@H](O)CN2C(=O)[C@@H](NC(=O)COCCCOCCCOc2ccc(Nc3ncc(Br)c(NCCCN(C)C(=O)C4CCC4)n3)cc2)C(C)(C)C)cc1 [Compound 6] | – | – | > 1000 | –
Cc1ncsc1-c1ccc(CNC(=O)[C@@H]2C[C@@H](O)CN2C(=O)[C@H](C(C)C)N2Cc3ccccc3C2=O)c(OCCOCCOCCOc2ccc(Nc3ncc(Br)c(NCCCN(C)C(=O)C4CCC4)n3)cc2)c1 [Compound 35] | ≥ 81 | – | – | –
Cc1ncsc1-c1ccc(CNC(=O)[C@@H]2C[C@@H](O)CN2C(=O)[C@H](C(C)C)N2Cc3ccccc3C2=O)c(OCCOCCOCCOCCOCCOCCOc2ccc(Nc3ncc(Br)c(NCCCN(C)C(=O)C4CCC4)n3)cc2)c1 [Compound 37] | ≥ 81 | – | – | –
Cc1ncsc1-c1ccc(CNC(=O)[C@@H]2C[C@@H](O)CN2C(=O)[C@@H](NC(=O)COCCOCCOCCOCCOCCOCCOc2ccc(Nc3ncc(Br)c(NCCCN(C)C(=O)C4CCC4)n3)cc2)C(C)(C)C)cc1 [Compound 16] | – | 96 | 34 | –
Cc1ncsc1-c1ccc(CNC(=O)[C@@H]2C[C@@H](O)CN2C(=O)[C@H](C(C)C)N2Cc3ccccc3C2=O)c(OCCOCCCOc2ccc(Nc3ncc(Br)c(NCCCN(C)C(=O)C4CCC4)n3)cc2)c1 [Compound 43] | 41 to 80 | – | – | –
Cc1ncsc1-c1ccc(CNC(=O)[C@@H]2C[C@@H](O)CN2C(=O)[C@@H](NC(=O)COCCOCCCCOCCCCOCCOCCOc2ccc(Nc3ncc(Br)c(NCCCN(C)C(=O)C4CCC4)n3)cc2)C(C)(C)C)cc1 [Compound 17] | – | 96 | 3 | –
Cc1ncsc1-c1ccc(CNC(=O)[C@@H]2C[C@@H](O)CN2C(=O)[C@H](C(C)C)N2Cc3ccccc3C2=O)c(OCCOCCOCCOCCOc2ccc(Nc3ncc(Br)c(NCCCN(C)C(=O)C4CCC4)n3)cc2)c1 [Compound 36] | ≥ 81 | – | – | –
Cc1ncsc1-c1ccc(CNC(=O)[C@@H]2C[C@@H](O)CN2C(=O)[C@@H](NC(=O)COCCOCCOCCCCOc2ccc(Nc3ncc(Br)c(NCCCN(C)C(=O)C4CCC4)n3)cc2)C(C)(C)C)cc1 [Compound 9] | – | 86 | 71 | –
Cc1ncsc1-c1ccc(CNC(=O)[C@@H]2C[C@@H](O)CN2C(=O)[C@@H](NC(=O)COCCOCCOCCOc2ccc(Nc3ncc(Br)c(NCCCN(C)C(=O)C4CCC4)n3)cc2)C(C)(C)C)cc1 [Compound 7] | – | – | > 1000 | –
Cc1ncsc1-c1ccc(CNC(=O)[C@@H]2C[C@@H](O)CN2C(=O)[C@@H](NC(=O)COCCOCCOCCOCCOc2ccc(Nc3ncc(Br)c(NCCCN(C)C(=O)C4CCC4)n3)cc2)C(C)(C)C)cc1 [Compound 10] | – | 92 | 103 | –
Cc1ncsc1-c1ccc(CNC(=O)[C@@H]2C[C@@H](O)CN2C(=O)[C@@H](NC(=O)COCCOCCOCCOCCOCCOc2ccc(Nc3ncc(Br)c(NCCCN(C)C(=O)C4CCC4)n3)cc2)C(C)(C)C)cc1 [Compound 13] | – | 96 | 29 | –
Cc1ncsc1-c1ccc(CNC(=O)[C@@H]2C[C@@H](O)CN2C(=O)[C@@H](NC(=O)CCCCCOCCOc2ccc(Nc3ncc(Br)c(NCCCN(C)C(=O)C4CCC4)n3)cc2)C(C)(C)C)cc1 [Compound 5] | – | – | > 1000 | –
Cc1ncsc1-c1ccc(CNC(=O)[C@@H]2C[C@@H](O)CN2C(=O)[C@H](C(C)C)N2Cc3ccccc3C2=O)c(OCCCCOc2ccc(Nc3ncc(Br)c(NCCCN(C)C(=O)C4CCC4)n3)cc2)c1 [Compound 39] | ≥ 81 | – | – | –

The next lines start with results.

remaining activity at 1 µM (TBK1 [2]) [%] | Compound | Dmax (maximal degradation observed) (TBK1 [1]) [%] | DC50 (TBK1 [1]) [nM] | also measured
41 to 80 | Cc1ncsc1-c1ccc(CNC(=O)[C@@H]2C[C@@H](O)CN2C(=O)[C@H](C(C)C)N2Cc3ccccc3C2=O)c(OCCOCCOCCCOCCOCCOc2ccc(Nc3ncc(Br)c(NCCCN(C)C(=O)C4CCC4)n3)cc2)c1 [Compound 42] | – | – | –
41 to 80 | Cc1ncsc1-c1ccc(CNC(=O)[C@@H]2C[C@@H](O)CN2C(=O)[C@H](C(C)C)N2Cc3ccccc3C2=O)c(OCCCOCCCCOCCCOc2ccc(Nc3ncc(Br)c(NCCCN(C)C(=O)C4CCC4)n3)cc2)c1 [Compound 44] | – | – | –
≥ 81 | Cc1ncsc1-c1ccc(CNC(=O)[C@@H]2C[C@@H](O)CN2C(=O)[C@H](C(C)C)N2Cc3ccccc3C2=O)c(OCCCCOCCCCOc2ccc(Nc3ncc(Br)c(NCCCN(C)C(=O)C4CCC4)n3)cc2)c1 [Compound 40] | – | – | –
≥ 81 | Cc1ncsc1-c1ccc(CNC(=O)[C@@H]2C[C@@H](O)CN2C(=O)[C@@H](NC(=O)COCCCOCCCCOCCCOc2cccc(Nc3ncc(C4CC4)c(NCCCN(C)C(=O)C4CCC4)n3)c2)C(C)(C)C)cc1 [Compound 51] | – | – | –
≥ 81 | CCc1cnc(Nc2cccc(OCCCOCCCCOCCCOCC(=O)N[C@H](C(=O)N3C[C@H](O)C[C@H]3C(=O)NCc3ccc(-c4scnc4C)cc3)C(C)(C)C)c2)nc1NCCCN(C)C(=O)C1CCC1 [Compound 52] | – | – | –
41 to 80 | Cc1ncsc1-c1ccc(CNC(=O)[C@@H]2C[C@@H](O)CN2C(=O)[C@H](C(C)C)N2Cc3ccccc3C2=O)c(OCCOCCOCCCCOCCOCCOc2ccc(Nc3ncc(Br)c(NCCCN(C)C(=O)C4CCC4)n3)cc2)c1 [Compound 45] | – | – | –
≥ 81 | Cc1cnc(Nc2cccc(OCCCOCCCCOCCCOCC(=O)N[C@H](C(=O)N3C[C@H](O)C[C@H]3C(=O)NCc3ccc(-c4scnc4C)cc3)C(C)(C)C)c2)nc1NCCCN(C)C(=O)C1CCC1 [Compound 50] | – | – | –
41 to 80 | Cc1ncsc1-c1ccc(CNC(=O)[C@@H]2C[C@@H](O)CN2C(=O)[C@H](C(C)C)N2Cc3ccccc3C2=O)c(OCCCOCCCOCCOc2ccc(Nc3ncc(Br)c(NCCCN(C)C(=O)C4CCC4)n3)cc2)c1 [Compound 46] | – | – | –
≥ 81 | Cc1ncsc1-c1ccc(CNC(=O)[C@@H]2C[C@@H](O)CN2C(=O)[C@H](C(C)C)N2Cc3ccccc3C2=O)c(OCCCOCCCOc2ccc(Nc3ncc(Br)c(NCCCN(C)C(=O)C4CCC4)n3)cc2)c1 [Compound 41] | – | – | –
41 to 80 | C=Cc1cnc(Nc2cccc(OCCCOCCCCOCCCOCC(=O)N[C@H](C(=O)N3C[C@H](O)C[C@H]3C(=O)NCc3ccc(-c4scnc4C)cc3)C(C)(C)C)c2)nc1NCCCN(C)C(=O)C1CCC1 [Compound 54] | – | – | –
0 to 40 | Cc1ncsc1-c1ccc(CNC(=O)[C@@H]2C[C@@H](O)CN2C(=O)[C@H](C(C)C)N2Cc3ccccc3C2=O)c(OCCCOCCCOCCOCCCOCCCOc2ccc(Nc3ncc(Br)c(NCCCN(C)C(=O)C4CCC4)n3)cc2)c1 [Compound 48] | – | – | –
≥ 81 | Cc1ncsc1-c1ccc(CNC(=O)[C@@H]2C[C@@H](O)CN2C(=O)[C@@H](NC(=O)COCCCOCCCCOCCCOc2cccc(Nc3ncc4c(n3)N(CCCN(C)C(=O)C3CCC3)CC4)c2)C(C)(C)C)cc1 [Compound 53] | – | – | –
